As usually defined, the IC50 is the concentration needed to halve the response being measured. A high value points to lower potency.

The target of experiment [1] is T1, human V1a receptor (Homo sapiens, UniProt P37288).
T1 construct: expressed in transfected cells; host or cells: CHO K1 (ATCC), constitutively expressing a modified aequorin
Description: Cellular in vitro assay for determining the vasopressin receptor activity (aequorin luminescence, antagonism of [Arg8]-vasopressin), hV1a. Format: cell-based. Particulars: CHO cell line transfected with the human V1a receptor; agonist [Arg8]-vasopressin. The text has this:
(§1) B-1. Cellular In Vitro Assay for Determining the Vasopressin Receptor Activity
(§2) The identification of agonists and antagonists of the V1a and V2 vasopressin receptors from humans and rats and also the quantification of the activity of the substances described here took place using recombinant cell lines. These cells derive originally from a hamster ovary epithelial cell (Chinese Hamster Ovary, CHO K1, ATCC: American Type Culture Collection, Manassas, Va. 20108, USA). The test cell lines constitutively express a modified form of the calcium-sensitive photoprotein aequorin, which, after reconstitution with the cofactor coelenterazine, emits light when there are increases in the free calcium concentration (Rizzuto R., Simpson A. W., Brini M., Pozzan T.; Nature 358 (1992) 325-327). In addition, the cells are stably transfected with the human or rat V1a or V2 receptors. In the case of the Gs-coupling V2 receptors, the cells are stably transfected with a further gene, which codes for the promiscuous Gα16 protein (Amatruda T. T., Steele D. A., Slepak V. Z., Simon M. I., Proc. Nat. Acad. Sci. USA 88 (1991), 5587-5591), either independently or as a fusion gene. The resulting vasopressin receptor test cells react to stimulation of the recombinantly expressed vasopressin receptors by intracellular release of calcium ions, which can be quantified by the resulting aequorin luminescence using a suitable luminometer (Milligan G., Marshall F., Rees S., Trends in Pharmaco. Sci. 17 (1996) 235-237).
(§3) On the day before the assay, the cells are plated out in culture medium (DMEM, 10% FCS, 2 mM glutamine, 10 mM HEPES) in 384-well microtiter plates and kept in a cell incubator (96% humidity, 5% v/v carbon dioxide, 37° C.). On the day of the assay, the culture medium is replaced by a Tyrode solution (140 mM sodium chloride, 5 mM potassium chloride, 1 mM magnesium chloride, 2 mM calcium chloride, 20 mM glucose, 20 mM HEPES), which additionally contains the cofactor coelenterazine (50 μM), and the microtiter plate is then incubated for a further 3-4 hours. The test substances in various concentrations are placed for 10 to 20 minutes in the wells of the microtiter plate before the agonist [Arg8]-vasopressin is added, and the resulting light signal is measured immediately in the luminometer. The IC50 values are calculated using the GraphPad PRISM computer program (Version 3.02).
(§4) The table below lists representative IC50 values for the compounds of the invention on the cell line transfected with the human V1a or V2 receptor: […]

Experiment [2] concerns the target T2, human V2 receptor (Homo sapiens, UniProt P30518).
T2 construct: Gα16 (possible fusion partner; the text leaves open whether it was fused or expressed separately); expressed in transfected cells; host or cells: CHO K1 (ATCC), constitutively expressing a modified aequorin and co-transfected with Gα16
Description: Cellular in vitro assay for determining the vasopressin receptor activity (aequorin luminescence, antagonism of [Arg8]-vasopressin), hV2. Format: cell-based. To be noted: CHO cell line transfected with the human V2 receptor (and Gα16); agonist [Arg8]-vasopressin.
Excerpt: as §1, §2, §3, §4

T2 sequence (P30518 whole entry, the tested form may be a part): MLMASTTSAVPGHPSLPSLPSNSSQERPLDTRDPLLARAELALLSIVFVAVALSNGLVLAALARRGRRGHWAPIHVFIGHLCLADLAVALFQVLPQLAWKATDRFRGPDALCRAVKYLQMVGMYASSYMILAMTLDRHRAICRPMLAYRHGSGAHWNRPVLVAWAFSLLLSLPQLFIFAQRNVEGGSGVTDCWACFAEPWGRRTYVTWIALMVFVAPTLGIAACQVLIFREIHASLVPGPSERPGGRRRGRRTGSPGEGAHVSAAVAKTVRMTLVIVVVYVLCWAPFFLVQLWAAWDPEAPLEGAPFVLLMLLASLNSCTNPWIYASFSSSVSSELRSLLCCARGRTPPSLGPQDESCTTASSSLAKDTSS
T1 sequence (P37288 whole entry): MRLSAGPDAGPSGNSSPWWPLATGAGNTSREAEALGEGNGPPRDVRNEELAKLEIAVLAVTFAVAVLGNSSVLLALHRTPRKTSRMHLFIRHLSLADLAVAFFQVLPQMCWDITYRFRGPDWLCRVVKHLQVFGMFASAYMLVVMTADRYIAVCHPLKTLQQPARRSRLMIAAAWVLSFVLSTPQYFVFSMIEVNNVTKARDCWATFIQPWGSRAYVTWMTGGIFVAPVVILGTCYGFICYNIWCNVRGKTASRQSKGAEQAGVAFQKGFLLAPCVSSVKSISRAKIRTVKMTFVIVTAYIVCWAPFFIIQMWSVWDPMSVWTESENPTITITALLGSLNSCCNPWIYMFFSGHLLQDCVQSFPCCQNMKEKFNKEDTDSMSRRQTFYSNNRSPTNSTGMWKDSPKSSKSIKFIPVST

In the case of `C=CCn1c(-c2ccc(Cl)cc2)nn(S(=O)(=O)c2ccc(C(=O)NC(C)(C)C)cc2OC)c1=O` [Example 1, N-tert-Butyl-4-{[3-(4-chlorophenyl)-5-oxo-4-prop-2-en-1-yl-4,5-dihydro-1H-1,2,4-triazol-1-yl]sulphonyl}-3-methoxybenzenecarboxamide], the IC50 in experiment [1] is 5500 nM; in experiment [2] it was 3 nM.
In the same order, the values of `COc1cc(C(=O)NC(C)(C)C)ccc1S(=O)(=O)n1nc(-c2ccc(Cl)cc2)n(C2CC2)c1=O` [Example 2] are 3700 nM and 3 nM.
Consider `COc1cc(C(=O)NC(C)(C)C)ccc1S(=O)(=O)n1nc(OC(C)C)n(C2CC2)c1=O` [Example 3], for which the IC50 is above 25000 nM in experiment [1] and 13 nM in experiment [2].
`COc1cc(C(=O)NC(C)(C)C)ccc1S(=O)(=O)n1nc(N(C)C)n(C2CC2)c1=O` [Example 7]: the IC50 is above 25000 nM in experiment [1] and 7 nM in experiment [2].
In the same order, the values of `COc1ccc(C(C)=O)cc1S(=O)(=O)n1nc(-c2ccc(Cl)cc2)n(C2CC2)c1=O` [Example 13] are 3500 nM and 290 nM.
In the same order, the values of `COc1cc(C(=O)NC(C)(C)C)ccc1S(=O)(=O)n1nc(-c2ccc(Cl)cc2)[nH]c1=O` [Example 14, N-tert-Butyl-4-{[3-(4-chlorophenyl)-5-oxo-4,5-dihydro-1H-1,2,4-triazol-1-yl]sulphonyl}-3-methoxybenzenecarboxamide] are above 25000 nM and 9 nM.
On to `CC(C)(C)NC(=O)c1ccc(S(=O)(=O)n2nc(-c3ccc(Cl)cc3)n(C3CC3)c2=O)cc1` [Example 17, N-tert-Butyl-4-{[3-(4-chlorophenyl)-4-cyclopropyl-5-oxo-4,5-dihydro-1H-1,2,4-triazol-1-yl]sulphonyl}benzenecarboxamide], for which the IC50 in experiment [1] is 7100 nM; in experiment [2], 4 nM.
The like results for `COc1cc(C(=O)NC(C)(C)C)ccc1Cn1nc(-c2ccc(Cl)cc2)n(C2CC2)c1=O` [Example 20, N-tert-Butyl-4-{[3-(4-chlorophenyl)-4-cyclopropyl-5-oxo-4,5-dihydro-1H-1,2,4-triazol-1-yl]methyl}-3-methoxybenzenecarboxamide] were, in that order, 15200 nM and 4 nM.
The like results for `COc1cc(Cn2nc(-c3ccc(Cl)cc3)n(C3CC3)c2=O)ccc1C(=O)NC(C)(C)C` [Example 22, N-tert-Butyl-4-{[3-(4-chlorophenyl)-4-cyclopropyl-5-oxo-4,5-dihydro-1H-1,2,4-triazol-1-yl]methyl}-2-methoxybenzamide] were, in that order, 870 nM and 220 nM.
As for `CC(C)(C)NC(=O)c1ccc(Cn2nc(-c3ccc(Cl)cc3)n(C3CC3)c2=O)c(Cl)c1` [Example 27, N-tert-Butyl-3-chloro-4-{[3-(4-chlorophenyl)-4-cyclopropyl-5-oxo-4,5-dihydro-1H-1,2,4-triazol-1-yl]methyl}benzamide], the IC50 in experiment [1] turned out to be 4200 nM; in experiment [2] it was 27 nM.
